This assay addresses T1, dopamine D3 receptor (D3), Sf9 (Homo sapiens, UniProt P35462).
T1 construct: gene DRD3; full-length from pCMV5-hD3, no tag mentioned; membranes of Sf9 cells (baculovirus)
As to the kind of experiment: [3H]spiperone competition binding, Sf9 membranes. The following applies: read-out: D3 / + NaCl.

T1 sequence (P35462 whole entry): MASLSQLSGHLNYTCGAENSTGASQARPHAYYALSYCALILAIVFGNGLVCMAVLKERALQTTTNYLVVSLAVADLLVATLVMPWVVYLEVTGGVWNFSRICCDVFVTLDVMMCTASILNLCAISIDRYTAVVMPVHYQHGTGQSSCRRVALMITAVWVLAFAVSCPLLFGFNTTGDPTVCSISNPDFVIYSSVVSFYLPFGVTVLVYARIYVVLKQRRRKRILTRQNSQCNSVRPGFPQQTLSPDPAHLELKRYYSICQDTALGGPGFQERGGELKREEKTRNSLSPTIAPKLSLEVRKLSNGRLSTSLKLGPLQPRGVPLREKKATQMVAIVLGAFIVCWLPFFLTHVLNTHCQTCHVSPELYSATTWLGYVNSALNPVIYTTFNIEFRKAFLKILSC

Turning to `CCCN(CCC)C1Cc2cc(OC)c(OC)cc2C1` [U 99194], the IC50 worked out at 532 nM.
Regarding `COc1ccccc1N1CCN(CCCCNC(=O)c2ccc(-c3ccc(C(C)=O)cc3)cc2)CC1` [GR 103691], the IC50 stood at 0.46 nM.

These data come from publication PMC4933336, “Examining the Effects of Sodium Ions on the Binding of Antagonists to Dopamine D2 and D3 Receptors” (PLoS ONE, 2016).
